How the values were obtained:
Assay in all cases: Phage-Mediated Detection of Staphylococcus aureus
Assay type in all cases: cell-based
[1] = system: Staphylococcus aureus strain 12600 (MSSA, ATCC)
Method: (§1) Samples of methicillin-resistant S. aureus (MRSA) were primed by adding 135 μl of samples containing S. aureus to rich media. The rich media included sub-inhibitory antibiotic (cefoxitin) to allow for specific enrichment and induction of MRSA. Samples were incubated in rich media for 1-2 hours. Following the priming of the samples, additional cefoxitin was added to the media and samples were incubated for an additional 2 hours. Staphylococcus aureus-specific bacteriophage NanoLuc Indicator phage was added to the samples and incubated for 2 hours. Lysis buffer and NANO-GLO® reagent were added. Following 5 minutes of incubation, measurements of bioluminescence were taken using a GLOMAX® 96 instrument. A signal/background ratio ≥750 RLU indicated positive detection of S. aureus. A signal/background ratio of <750 RLU indicated the sample was negative for S. aureus.

[2] = system: Staphylococcus aureus strain AR0463 (MRSA, CDC Panel)
Method: as §1

[3] = system: Staphylococcus aureus strain AR0475 (MRSA, CDC Panel)
Method: as §1

[4] = system: Staphylococcus aureus strain AR0478 (MRSA, CDC Panel)
Method: as §1

[5] = system: Staphylococcus aureus strain AR0479 (MRSA, CDC Panel)
Method: as §1

[6] = system: Staphylococcus aureus strain AR0481 (MRSA, CDC Panel)
Method: as §1

[7] = system: Staphylococcus aureus strain AR0484 (MSSA, CDC Panel)
Method: as §1

[8] = system: Staphylococcus aureus strain AR0487 (MSSA, CDC Panel)
Method: as §1

[9] = system: Staphylococcus aureus strain AR0488 (MSSA, CDC Panel)
Method: as §1

[10] = system: Staphylococcus aureus strain AR0490 (MSSA, CDC Panel)
Method: as §1

[11] = system: Staphylococcus aureus strain AR0492 (MSSA, CDC Panel)
Method: as §1

[12] = system: Staphylococcus aureus strain BAA-1720 (MRSA, ATCC); details: detected CFU 16, cefoxitin 1.8 ug/mL
Method: as §1

[13] = system: Staphylococcus aureus strain BAA-1721 (MSSA, ATCC)
Method: as §1

## CO[C@@]1(NC(=O)Cc2cccs2)C(=O)N2C(C(=O)O)=C(COC(N)=O)CS[C@@H]21 [Cefoxitin, cefoxitin]
[1]; detected CFU 59, cefoxitin 1.8 ug/mL
  Cefoxitin Concentration 1.8 ug/mL (indicator phage luminescence signal): 508 RLU
[1]; detected CFU 406, cefoxitin 1 ug/mL
  Cefoxitin Concentration 1 ug/mL (indicator phage luminescence signal): 18310 RLU
[1]; detected CFU 406, cefoxitin 2 ug/mL
  Cefoxitin Concentration 2 ug/mL (indicator phage luminescence signal): 178 RLU
[1]; detected CFU 406, cefoxitin 4 ug/mL
  Cefoxitin Concentration 4 ug/mL (indicator phage luminescence signal): 196 RLU
[2]; detected CFU 28, cefoxitin 1.8 ug/mL
  Cefoxitin Concentration 1.8 ug/mL (indicator phage luminescence signal): 1941 RLU
[2]; detected CFU 265, cefoxitin 1 ug/mL
  Cefoxitin Concentration 1 ug/mL (indicator phage luminescence signal): 8987 RLU
[2]; detected CFU 265, cefoxitin 2 ug/mL
  Cefoxitin Concentration 2 ug/mL (indicator phage luminescence signal): 3377 RLU
[2]; detected CFU 265, cefoxitin 4 ug/mL
  Cefoxitin Concentration 4 ug/mL (indicator phage luminescence signal): 339 RLU
[3]; detected CFU 134, cefoxitin 1 ug/mL
  Cefoxitin Concentration 1 ug/mL (indicator phage luminescence signal): 52460 RLU
[3]; detected CFU 134, cefoxitin 2 ug/mL
  Cefoxitin Concentration 2 ug/mL (indicator phage luminescence signal): 57660 RLU
[3]; detected CFU 134, cefoxitin 4 ug/mL
  Cefoxitin Concentration 4 ug/mL (indicator phage luminescence signal): 34040 RLU
[4]; detected CFU 183, cefoxitin 1 ug/mL
  Cefoxitin Concentration 1 ug/mL (indicator phage luminescence signal): 279700 RLU
[4]; detected CFU 183, cefoxitin 2 ug/mL
  Cefoxitin Concentration 2 ug/mL (indicator phage luminescence signal): 73090 RLU
[4]; detected CFU 183, cefoxitin 4 ug/mL
  Cefoxitin Concentration 4 ug/mL (indicator phage luminescence signal): 1519 RLU
[5]; detected CFU 52, cefoxitin 1 ug/mL
  Cefoxitin Concentration 1 ug/mL (indicator phage luminescence signal): 51560 RLU
[5]; detected CFU 52, cefoxitin 2 ug/mL
  Cefoxitin Concentration 2 ug/mL (indicator phage luminescence signal): 34730 RLU
[5]; detected CFU 52, cefoxitin 4 ug/mL
  Cefoxitin Concentration 4 ug/mL (indicator phage luminescence signal): 6803 RLU
[6]; detected CFU 82, cefoxitin 1 ug/mL
  Cefoxitin Concentration 1 ug/mL (indicator phage luminescence signal): 150100 RLU
[6]; detected CFU 82, cefoxitin 2 ug/mL
  Cefoxitin Concentration 2 ug/mL (indicator phage luminescence signal): 109000 RLU
[6]; detected CFU 82, cefoxitin 4 ug/mL
  Cefoxitin Concentration 4 ug/mL (indicator phage luminescence signal): 27170 RLU
[7]; detected CFU 525, cefoxitin 1 ug/mL
  Cefoxitin Concentration 1 ug/mL (indicator phage luminescence signal): 8875 RLU
[7]; detected CFU 525, cefoxitin 2 ug/mL
  Cefoxitin Concentration 2 ug/mL (indicator phage luminescence signal): 172 RLU
[7]; detected CFU 525, cefoxitin 4 ug/mL
  Cefoxitin Concentration 4 ug/mL (indicator phage luminescence signal): 182 RLU
[8]; detected CFU 221, cefoxitin 1 ug/mL
  Cefoxitin Concentration 1 ug/mL (indicator phage luminescence signal): 10420 RLU
[8]; detected CFU 221, cefoxitin 2 ug/mL
  Cefoxitin Concentration 2 ug/mL (indicator phage luminescence signal): 167 RLU
[8]; detected CFU 221, cefoxitin 4 ug/mL
  Cefoxitin Concentration 4 ug/mL (indicator phage luminescence signal): 188 RLU
[9]; detected CFU 151, cefoxitin 1 ug/mL
  Cefoxitin Concentration 1 ug/mL (indicator phage luminescence signal): 15430 RLU
[9]; detected CFU 151, cefoxitin 2 ug/mL
  Cefoxitin Concentration 2 ug/mL (indicator phage luminescence signal): 207 RLU
[9]; detected CFU 151, cefoxitin 4 ug/mL
  Cefoxitin Concentration 4 ug/mL (indicator phage luminescence signal): 197 RLU
[10]; detected CFU 940, cefoxitin 1 ug/mL
  Cefoxitin Concentration 1 ug/mL (indicator phage luminescence signal): 40620 RLU
[10]; detected CFU 940, cefoxitin 2 ug/mL
  Cefoxitin Concentration 2 ug/mL (indicator phage luminescence signal): 254 RLU
[10]; detected CFU 940, cefoxitin 4 ug/mL
  Cefoxitin Concentration 4 ug/mL (indicator phage luminescence signal): 582 RLU
[11]; detected CFU 178, cefoxitin 1 ug/mL
  Cefoxitin Concentration 1 ug/mL (indicator phage luminescence signal): 13040 RLU
[11]; detected CFU 178, cefoxitin 2 ug/mL
  Cefoxitin Concentration 2 ug/mL (indicator phage luminescence signal): 194 RLU
[12]
  Cefoxitin Concentration 1.8 ug/mL (indicator phage luminescence signal): 4034 RLU
[13]; detected CFU 197, cefoxitin 1 ug/mL
  Cefoxitin Concentration 1 ug/mL (indicator phage luminescence signal): 21900 RLU
[13]; detected CFU 197, cefoxitin 2 ug/mL
  Cefoxitin Concentration 2 ug/mL (indicator phage luminescence signal): 172 RLU
[13]; detected CFU 197, cefoxitin 4 ug/mL
  Cefoxitin Concentration 4 ug/mL (indicator phage luminescence signal): 164 RLU
